Here are results for 10 molecules from ChEMBL document CHEMBL1201862, “PubChem BioAssay data set” (2004).

A short description of test [1]: A cytotoxicity screen of small molecule inhibitors of the PhoP region in Salmonella typhi identified in the primary screen. [Related pubchem assays: 1850, 1864, 1985 ]. The class given is functional.
Test [2] in a line: inhibitors of Vif binding to APOBEC3G peptide, primary screen, biochemical, TR-FRET, GST-Vif 1-94, biotin-A3G peptide, dose response retest (AID 1117319).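 Further: TR-FRET signal of purified GST-Vif binding a biotinylated A3G peptide; inhibitors lower the FRET signal by blocking Vif and A3G binding.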 The class given is functional. For orientation: Time-resolved FRET reads energy transfer from a long-lived donor to a nearby acceptor.
A further test deals with T1, Protein Tat (Human immunodeficiency virus type 1 group M subtype B (isolate HXB2)(HIV-1), UniProt P04608).
T1 sequence (P04608 whole entry): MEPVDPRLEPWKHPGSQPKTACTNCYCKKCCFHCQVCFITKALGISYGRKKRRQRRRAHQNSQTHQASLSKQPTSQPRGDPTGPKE
In kind it is functional.

For test [3], the target named is E3 ubiquitin-protein ligase Mdm2 (Homo sapiens, UniProt Q00987). The test can be described thus: enhancers of MDM2-luciferase reporter signal, concentration-effect titration, project on inhibitors of MDM2 ubiquitin ligase, cellular assay, luminescent readout, 384-well plate format (AID 1394).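 Further: MDM2 E3 inhibitors raise luminescence so EC50 is for signal enhancement.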 In kind it is functional.
Test [4] can be described thus: HCT116 cell viability decrease, GSK3B pretreatment – CellTiter-Glo, IC50, dose response (AID 1117339). As to conditions: HCT-116. In kind it is functional. (In general: In ATP-based viability assays light output follows the ATP content of the culture.)
Test [5] in a line: RKO cell viability reduction, dose response, CellTiter-Glo luminescence (AID 1117322). The class given is functional.
A short description of test [6]: cytotoxicity toward HT-29 cells – cell-based, CellTiter-Glo luminescence, IC50, dose response (AID 1117330). In kind it is functional.
Test [7] in a line: Concentration-dependent survival of SW480 colon cancer line, luminescence detection with CellTiter-Glo, half-maximal inhibitory concentration (AID 1117338). In kind it is functional.
Test [8] is described as follows: Dose-response inhibition of insulin secretion in a rat insulinoma line at 5 mM glucose (AID 1117331). The class given is functional, cell-based. As to conditions: INS-1E.
A short description of test [9]: cytotoxicity toward Colo320 cells – cell-based, CellTiter-Glo luminescence, IC50, dose response (AID 1117334). In kind it is functional. The conditions noted are these: COLO 320.
Test [10] in a line: CellTiter-Glo luminescent dose response of DLD-1 viability loss (AID 1117352). In kind it is functional.
Another test concerns the target T2, Cytochrome P450 1A2 (Homo sapiens, UniProt P05177).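 Further: PubChem cytochrome P450 panel assay, CYP1A2 panel member.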
T2 sequence (P05177 whole entry): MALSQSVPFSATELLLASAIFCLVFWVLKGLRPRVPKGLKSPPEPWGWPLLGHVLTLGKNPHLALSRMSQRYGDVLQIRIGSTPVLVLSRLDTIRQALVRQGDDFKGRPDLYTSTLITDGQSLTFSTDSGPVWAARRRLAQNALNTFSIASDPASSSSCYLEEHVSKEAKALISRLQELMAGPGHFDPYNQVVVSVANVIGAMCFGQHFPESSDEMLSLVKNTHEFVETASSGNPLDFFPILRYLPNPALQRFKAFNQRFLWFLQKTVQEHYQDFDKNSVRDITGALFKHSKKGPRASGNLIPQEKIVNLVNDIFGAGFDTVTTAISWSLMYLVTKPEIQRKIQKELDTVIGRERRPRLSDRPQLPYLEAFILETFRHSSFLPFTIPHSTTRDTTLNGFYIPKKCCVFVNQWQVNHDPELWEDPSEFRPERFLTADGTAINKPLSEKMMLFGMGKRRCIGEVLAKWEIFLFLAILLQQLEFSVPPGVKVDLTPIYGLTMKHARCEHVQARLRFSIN

Test [11] can be described thus: SNU-C1 cell viability reduction, dose response, CellTiter-Glo luminescence (AID 1117323). The class given is functional, cell-based.
Test [12] can be described thus: cytotoxicity toward HCT116 cells – cell-based, CellTiter-Glo luminescence, IC50, dose response (AID 1117332). In kind it is functional. As to conditions: HCT-116.
The target in a further test is T3, Aspartyl aminopeptidase (Plasmodium falciparum 3D7, UniProt Q8I2J3).
T3 sequence (Q8I2J3 whole entry): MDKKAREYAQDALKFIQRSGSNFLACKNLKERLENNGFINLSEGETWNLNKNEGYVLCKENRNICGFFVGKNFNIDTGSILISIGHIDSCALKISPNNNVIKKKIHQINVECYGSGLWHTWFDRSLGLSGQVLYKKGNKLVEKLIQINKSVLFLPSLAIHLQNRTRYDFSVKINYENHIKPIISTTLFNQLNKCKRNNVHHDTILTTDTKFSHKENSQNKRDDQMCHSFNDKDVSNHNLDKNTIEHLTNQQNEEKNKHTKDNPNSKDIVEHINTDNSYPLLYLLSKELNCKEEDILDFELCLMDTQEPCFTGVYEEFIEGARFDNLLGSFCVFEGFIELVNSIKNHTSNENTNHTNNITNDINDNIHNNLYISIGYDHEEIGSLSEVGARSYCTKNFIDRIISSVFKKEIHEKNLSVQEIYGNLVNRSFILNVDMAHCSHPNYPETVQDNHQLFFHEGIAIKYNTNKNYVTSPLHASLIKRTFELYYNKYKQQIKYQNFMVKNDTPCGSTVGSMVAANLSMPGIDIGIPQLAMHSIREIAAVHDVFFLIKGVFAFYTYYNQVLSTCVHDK
As to the kind of experiment: Counterscreen for inhibitors of M1 and M17 aminopeptidases: QFRET-based biochemical high throughput dose response assay for inhibitors of the Plasmodium falciparum M18 Aspartyl Aminopeptidase (PFM18AAP). [Related PubChem assays: 1619 (Screening assay (M17LAP inhibitors).), 1445 (Screening assay (M1AAP inhibitors).)].

Another test addresses T4, Leucine aminopeptidase (Plasmodium falciparum 3D7, UniProt Q8IL11).
T4 sequence (Q8IL11 whole entry): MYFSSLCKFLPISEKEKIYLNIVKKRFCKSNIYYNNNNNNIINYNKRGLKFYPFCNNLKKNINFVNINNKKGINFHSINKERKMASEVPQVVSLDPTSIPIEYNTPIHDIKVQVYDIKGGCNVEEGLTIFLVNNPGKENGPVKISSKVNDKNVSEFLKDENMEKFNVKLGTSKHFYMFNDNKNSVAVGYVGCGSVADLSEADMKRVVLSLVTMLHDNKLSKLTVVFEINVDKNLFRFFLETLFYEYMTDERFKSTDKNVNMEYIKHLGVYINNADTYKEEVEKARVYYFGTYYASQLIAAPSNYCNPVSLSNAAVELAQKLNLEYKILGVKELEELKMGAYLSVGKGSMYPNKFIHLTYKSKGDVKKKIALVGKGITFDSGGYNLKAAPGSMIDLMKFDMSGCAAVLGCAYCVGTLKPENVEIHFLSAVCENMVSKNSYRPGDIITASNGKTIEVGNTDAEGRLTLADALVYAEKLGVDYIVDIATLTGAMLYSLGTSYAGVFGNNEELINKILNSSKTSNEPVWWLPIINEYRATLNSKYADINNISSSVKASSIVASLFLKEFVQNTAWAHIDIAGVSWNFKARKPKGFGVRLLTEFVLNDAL
As to the kind of experiment: P. falciparum M17LAP inhibitors, primary screen, biochemical, fluorogenic H-Leu-NHMec substrate, 1536-well (AID 1619). In kind it is functional.

Another test deals with Procathepsin L (Homo sapiens, UniProt P07711). As to the kind of experiment: cathepsin L inhibitors, dose response, counter-screen for M1/M17 aminopeptidase inhibitor project, biochemical, QFRET, 1536-well (AID 2214). A general note: Counterscreens check selectivity or assay interference.
Test [13] is described as follows: P. falciparum Dd2 growth inhibitors, dose response, SYBR Green, dry powder samples, set 9 (AID 1159568). The class given is functional, cell-based.
The nature of test [14]: Late-stage results from the probe development effort to identify antagonists of arginine vasopressin receptor 1a (AVPR1a): fluorescence-based cell-based dose response OXTR inhibition counterscreen assay. The class given is functional.
In the next test the target is Vasopressin V2 receptor (Homo sapiens, UniProt P30518). The test can be described thus: Late-stage results from the probe development effort to identify antagonists of arginine vasopressin receptor 1a (AVPR1a): fluorescence-based cell-based dose response AVPR2 inhibition counterscreen assay. The class given is functional.
Test [15] is described as follows: Late-stage results from the probe development effort to identify antagonists of arginine vasopressin receptor 1a (AVPR1a): fluorescence-based cell-based dose response AVPR1a inhibition assay. The class given is functional.
For the next test, the target named is Vasopressin V1b receptor (Homo sapiens, UniProt P47901). As to the kind of experiment: Late-stage results from the probe development effort to identify antagonists of arginine vasopressin receptor 1a (AVPR1a): fluorescence-based cell-based dose response AVPR1b inhibition counterscreen assay. In kind it is functional.
A short description of test [16]: NIH:OVCAR-3 ovarian cancer cell cytotoxicity, dose response, PAX8 inhibitor project, plate reader, dry powder samples (AID 743044). The class given is functional, cell-based.
A short description of test [17]: cytotoxicity in OVCAR8 ovarian cancer cells, dose response, PAX8 project, cell-based, plate reader, dry powder samples (AID 743197). In kind it is functional. The conditions noted are these: OVCAR-8.
Test [18] can be described thus: IGROV1 ovarian cancer cell cytotoxicity, dose response, PAX8 inhibitor project, plate reader, dry powder samples (AID 743043). In kind it is functional, cell-based. The conditions noted are these: IGROV-1.
Another test addresses Paired box protein Pax-8 (Homo sapiens, UniProt Q06710). The test can be described thus: inhibitors of PAX8-driven TPO luciferase reporter, dose response, RMG-I cells, cherry-pick (AID 687027).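 Further: luciferase reporter driven by Pax8 target thyroperoxidase promoter measured by SteadyGlo luminescence.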 The class given is functional, cell-based.

Activity calls are given as the source filed them.

Vasopressin V2 receptor, sequence (P30518 whole entry): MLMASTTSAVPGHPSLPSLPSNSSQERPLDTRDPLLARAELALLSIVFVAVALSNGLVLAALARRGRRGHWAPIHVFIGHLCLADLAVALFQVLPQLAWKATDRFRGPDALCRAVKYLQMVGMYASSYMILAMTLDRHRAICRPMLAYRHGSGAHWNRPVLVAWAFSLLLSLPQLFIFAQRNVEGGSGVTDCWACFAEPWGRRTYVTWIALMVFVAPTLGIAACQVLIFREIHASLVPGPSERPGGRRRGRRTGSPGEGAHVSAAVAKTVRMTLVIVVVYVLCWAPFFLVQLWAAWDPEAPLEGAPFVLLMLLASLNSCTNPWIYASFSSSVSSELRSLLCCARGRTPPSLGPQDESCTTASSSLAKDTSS
Vasopressin V1b receptor, sequence (P47901 whole entry): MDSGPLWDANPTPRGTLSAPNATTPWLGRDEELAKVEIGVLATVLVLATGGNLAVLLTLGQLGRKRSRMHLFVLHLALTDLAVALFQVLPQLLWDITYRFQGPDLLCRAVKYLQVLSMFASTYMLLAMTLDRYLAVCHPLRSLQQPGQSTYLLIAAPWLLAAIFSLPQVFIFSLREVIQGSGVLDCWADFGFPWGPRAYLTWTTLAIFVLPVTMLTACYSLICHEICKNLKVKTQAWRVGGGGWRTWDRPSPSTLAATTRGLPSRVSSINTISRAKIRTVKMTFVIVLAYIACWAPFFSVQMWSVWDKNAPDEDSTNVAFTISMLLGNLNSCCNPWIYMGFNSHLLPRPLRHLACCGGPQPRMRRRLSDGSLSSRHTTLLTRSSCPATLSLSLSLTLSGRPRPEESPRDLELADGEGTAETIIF
Paired box protein Pax-8, sequence (Q06710 whole entry): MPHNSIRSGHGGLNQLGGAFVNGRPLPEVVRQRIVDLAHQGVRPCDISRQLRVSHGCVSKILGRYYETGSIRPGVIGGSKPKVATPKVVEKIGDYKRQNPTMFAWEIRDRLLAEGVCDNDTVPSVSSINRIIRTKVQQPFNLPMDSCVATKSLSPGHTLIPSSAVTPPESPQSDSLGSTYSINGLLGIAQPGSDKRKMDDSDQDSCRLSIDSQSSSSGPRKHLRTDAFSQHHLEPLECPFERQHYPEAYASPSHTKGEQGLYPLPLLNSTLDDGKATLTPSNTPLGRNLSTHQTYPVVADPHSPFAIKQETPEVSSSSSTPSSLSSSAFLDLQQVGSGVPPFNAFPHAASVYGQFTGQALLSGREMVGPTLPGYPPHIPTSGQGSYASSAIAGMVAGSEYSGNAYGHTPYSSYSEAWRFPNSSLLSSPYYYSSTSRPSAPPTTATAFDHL
E3 ubiquitin-protein ligase Mdm2, sequence (Q00987 whole entry): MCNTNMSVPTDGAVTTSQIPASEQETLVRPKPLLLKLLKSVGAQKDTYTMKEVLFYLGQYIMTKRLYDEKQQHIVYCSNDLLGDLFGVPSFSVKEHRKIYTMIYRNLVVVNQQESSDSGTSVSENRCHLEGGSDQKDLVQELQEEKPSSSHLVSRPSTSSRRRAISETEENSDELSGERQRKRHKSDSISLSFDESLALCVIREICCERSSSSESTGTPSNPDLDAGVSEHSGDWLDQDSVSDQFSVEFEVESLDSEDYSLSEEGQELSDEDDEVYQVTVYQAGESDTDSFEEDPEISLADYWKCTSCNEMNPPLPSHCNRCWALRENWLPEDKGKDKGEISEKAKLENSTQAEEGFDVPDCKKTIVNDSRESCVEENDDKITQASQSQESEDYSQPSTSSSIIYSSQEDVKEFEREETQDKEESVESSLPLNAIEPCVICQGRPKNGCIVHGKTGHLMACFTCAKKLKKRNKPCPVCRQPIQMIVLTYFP
Procathepsin L, sequence (P07711 whole entry): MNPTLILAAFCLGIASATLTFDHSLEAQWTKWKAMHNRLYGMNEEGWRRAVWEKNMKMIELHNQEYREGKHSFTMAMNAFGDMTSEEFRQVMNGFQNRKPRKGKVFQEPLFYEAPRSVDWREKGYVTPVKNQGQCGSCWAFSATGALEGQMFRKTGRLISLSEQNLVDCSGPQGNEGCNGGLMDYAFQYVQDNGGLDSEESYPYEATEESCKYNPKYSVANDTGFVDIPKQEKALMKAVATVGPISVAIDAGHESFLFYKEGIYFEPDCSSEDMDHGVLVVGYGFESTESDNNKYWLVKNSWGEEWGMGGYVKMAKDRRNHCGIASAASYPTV

For `COC(=O)c1ccc(CSc2nc3ccccc3c(=O)n2-c2ccc(OC)c(OC)c2)o1`, the EC50 in test [1] was > 50 µM (active). In test [2], the IC50 is > 100 µM (active).
In the case of `CCOc1ccc(Nc2nc3ccccc3n3nnnc23)cc1`, the IC50 (at Protein Tat; in test [2]) was > 100 µM (active) in each case.
As to `Cc1ccc(C)c(NC(=O)C(Sc2nnc(-c3cccs3)o2)c2ccccc2)c1` (centres undefined), in [3], the EC50 is on record as 25 µM (not active).
In the case of `O=C1NCN(c2ccccc2)C12CCN(CCCOc1ccc(F)cc1)CC2` [SPIRAMIDE], the IC50 in test [4] was 5.33 µM (inactive); in test [5] it was 5.31 µM (inactive); in [6], 2.46 µM (active); in test [7], 4.61 µM (active); in test [8], > 33.3 µM (inactive); in [9], 11.8 µM (inactive). Also, the IC50 in test [10] was 0.882 µM (active); in test [11], 0.242 µM (active); in test [12], 8.82 µM (inactive). Further, the AC50 at Cytochrome P450 1A2 is 39.8 µM (inconclusive).
In the case of `Cc1cccc(Nc2nnc(SC3CCOC3=O)s2)c1C` (centres undefined), the IC50 at Aspartyl aminopeptidase was > 73.5 µM (not active); at Leucine aminopeptidase it was 2.23 µM (active); at Procathepsin L, > 59.6 µM (not active).
For `N=C(NN=Cc1ccc(Cl)cc1)NN=Cc1ccc(Cl)cc1`, the 50% inhibitory concentration (IC50) in test [4] was 0.344 µM (active); in test [5], 0.47 µM (active); in test [6], 0.681 µM (active); in [7] it was 0.225 µM (active); in test [9] it was 0.458 µM (active); in [10] it was 0.654 µM (active). Moreover, the IC50 is 0.28 µM (active) in test [11] and 0.394 µM (active) in test [12].
`CN1c2ccc(C#Cc3cccnc3)cc2[C@@H]2[C@@H](CCN2C(=O)c2cccc(F)c2)[C@@H]1CO`: the half-maximal activity concentration (AC50) in test [13] is 4.46 µM (active).
For the molecule `Cc1ccnc(N2CCC(C(=O)N(CC3CC3)c3ccc(Cl)cc3)CC2)c1`, the IC50 was 9.1 µM (active) in [14], 13.6 µM (inactive) at Vasopressin V2 receptor, 0.0052 µM (active) in [15] and 18.2 µM (inactive) at Vasopressin V1b receptor.
On to `Cc1ccc(S(=O)(=O)N(C)C[C@H]2OCCCC[C@H](C)Oc3ccc(NS(=O)(=O)c4ccc(F)cc4)cc3C(=O)N([C@H](C)CO)C[C@@H]2C)cc1`, for which the AC50 was 29.3 µM (active) in test [16], > 70 µM (inactive) in [17], 67.9 µM (active) in test [18] and 3.32 µM (active) at Paired box protein Pax-8.
Regarding `O=C(C1CCN(c2ncccc2Cl)CC1)N(CC1CC1)c1ccc(Cl)cc1`, the IC50 in test [14] was 1.7 µM (active); at Vasopressin V2 receptor, 11.3 µM (inactive); in test [15] it was 0.0232 µM (active); at Vasopressin V1b receptor, 7.1 µM (active).

In general, EC50 refers to the midpoint of the concentration-response curve. By IC50 is commonly meant the concentration that inhibits the measured activity by half. Usually AC50 stands for the midpoint of the concentration-response curve, whichever way the signal moves.
